Measurements reported in paper PMC9312917 (2022).

Assays:
Assay in all cases: graphene oxide fluorescence assay
Conditions in all cases: 100 mM NaCl, 5 mM KCl, 2 mM MgCl2, 1 mM CaCl2; 20 mM Tris-HCl pH 7.5, room temperature; aptamer 0-400 nM titrated at fixed 1 µg/mL SQX
[1] = test system: SBA28-1 (DNA, aptamer) CCCTAGGGG
[2] = test system: SBA40-1 (DNA, aptamer) GGCTGACTGCT
[3] = test system: SBA24-1 (DNA, aptamer) GCGTGAGC

Nc1ccc(S(=O)(=O)Nc2cnc3ccccc3n2)cc1
Kd [1]: 27.36 nM
Kd [2]: 36.73 nM
Kd [3]: 74.19 nM
